Structures can show the parent of a compound that is named as a salt.
Molecular target: T1, human Factor Xa (Homo sapiens, UniProt P00742)
T1 construct: containing human Factor Xa (final conc. Of 0.0003 U·ml−1)
Assay: In vitro assay for inhibition of Factor Xa (fluorogenic assay, Rhodamine 110 bis-CBZ-glycylglycyl-L-arginine amide substrate)
Type: biochemical
Details: Ki = IC50/1.6; 15 min preincubation, substrate 10 μM, room temperature, pH 7.4
Experimental: In Vitro Assay for Inhibition of Factor Xa
Compounds of the present invention were tested for their Factor Xa inhibitory activity as determined in vitro by their ability to inhibit human Factor Xa in a fluorogenic assay, using Rhodamine 110, bis-CBZ-glycylglycyl-L-arginine amide as the fluorogenic substrate. Compounds were diluted from a 10 mM stock solution in dimethylsulfoxide at appropriate concentrations. Assay was performed at room temperature using buffer consisting of: 50 mM Tris-HCl, 150 mM NaCl, 5 mM CaCl2, pH 7.4. containing human Factor Xa (final conc. Of 0.0003 U·ml−1). Compound and enzyme were preincubated for 15 min prior to addition of the substrate (final conc. of 10 μM). The reaction was stopped after 3 hrs with the addition of H-D-Phe-Pro-Arg-Chloromethylketone. An LJL-Analyst fluorimeter was used to monitor fluorescence with 485 nm excitation/535 nm emission. To obtain IC50 values the data were analysed using ActivityBase® and XLfit®.
Calculation of Ki Values: Ki=IC50/(1+[Substrate]/Km)
The Ki value for the above assay can be obtained by dividing the IC50 value by 1.6.

T1 sequence (P00742 235-488 limits assumed): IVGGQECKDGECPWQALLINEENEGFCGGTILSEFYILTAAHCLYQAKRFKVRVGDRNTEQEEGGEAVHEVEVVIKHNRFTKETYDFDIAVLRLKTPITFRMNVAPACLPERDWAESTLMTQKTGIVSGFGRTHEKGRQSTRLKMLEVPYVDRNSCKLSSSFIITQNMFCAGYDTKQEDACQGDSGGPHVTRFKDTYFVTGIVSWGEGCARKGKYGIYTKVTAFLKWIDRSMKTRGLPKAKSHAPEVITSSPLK
T1 sequence (P00742 41-179 partner limits assumed): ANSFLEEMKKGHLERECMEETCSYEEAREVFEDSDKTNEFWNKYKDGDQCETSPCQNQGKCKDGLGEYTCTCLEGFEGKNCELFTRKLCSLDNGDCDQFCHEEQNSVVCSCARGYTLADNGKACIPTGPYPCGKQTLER

Row | Compound | Ki [nM]
1 | C/C(=C\S(=O)(=O)NC1CCN(c2ccc(-n3ccnc3CN3CCC(F)C3)cc2F)C1=O)c1ccc(Cl)s1 (centres unmarked) [Example 5, (1E)-2-(5-Chloro-2-thienyl)-N-[1-(2-fluoro-4-{2-[(3-fluoro-1-pyrrolidinyl)methyl]-1H-imidazol-1-yl}phenyl)-2-oxo-3-pyrrolidinyl]-1-propene-1-sulfonamide formate] | < 10
2 | O=C1C(NS(=O)(=O)c2cc3ccc(Cl)cc3s2)CCN1c1ccc(-n2ccnc2CN2CCC(F)C2)cc1F (centres unmarked) [Example 6, 6-Chloro-N-[1-(2-fluoro-4-{2-[(3-fluoro-1-pyrrolidinyl)methyl]-1H-imidazol-1-yl}phenyl)-2-oxo-3-pyrrolidinyl]-1-benzothiophene-2-sulfonamide formate] | < 10
3 | COC1CN(Cc2nccn2-c2ccc(N3CCC(NS(=O)(=O)c4cc5ccc(Cl)cc5s4)C3=O)c(F)c2)C1 (centres unmarked) [Example 7, 6-Chloro-N-{1-[2-fluoro-4-(2-{[3-(methyloxy)-1-azetidinyl]methyl}-1H-imidazol-1-yl)phenyl]-2-oxo-3-pyrrolidinyl}-1-benzothiophene-2-sulfonamide formate] | < 10

Other lines, results leading:

Row | Ki [nM] | Compound
4 | < 10 | C/C(=C\S(=O)(=O)NC1CCN(c2ccc(-n3ccnc3CN3CCC3)cc2F)C1=O)c1ccc(Cl)s1 (centres unmarked) [Example 1, (1E)-N-(1-{4-[2-(1-Azetidinylmethyl)-1H-imidazol-1-yl]-2-fluorophenyl}-2-oxo-3-pyrrolidinyl)-2-(5-chloro-thienyl)-1-propene-1-sulfonamide formate]
5 | < 10 | O=C1C(NS(=O)(=O)CCc2ccc(Cl)s2)CCN1c1ccc(-n2ccnc2CN2CCC2)cc1F (centres unmarked) [Example 2, N-(1-{4-[2-(1-Azetidinylmethyl)-1H-imidazol-1-yl]-2-fluorophenyl}-2-oxo-3-pyrrolidinyl)-2-(5-chloro-2-thienyl)ethanesulfonamide formate]

Source: patent publication US7482374B2, “Pyrrolidine-2-ones as Factor Xa inhibitors” (Glaxo Group Limited, priority 2003, dated 2009)
